What was measured:
[1] = system: psoriatic lesions in a human subject; assay: Human in-vivo psoriatic lesion treatment
Procedure: Human in-vivo psoriatic lesion treatment: Cathelicidin 10 ug/ml or human beta defensin-2 diluted in PBS containing 0.1% BSA, or buffer carrier was applied to lesions in a human subject in a blind trial.

BETATC beta cell line = assay: Thymidine incorporation cell proliferation assay; type: cell-based, mouse; conditions: 2 microgram/ml, 3.5 days
Procedure: Murine beta cell line were treated for 3.5 days with LL-37 at 2 microgram/ml (red/dark bars) and compared to PBS control ([…]). Cell proliferation was estimated by measuring [3(H)]-thymidine incorporation and was expressed as percent of control untreated cells. A representative experiment is shown.
The antimicrobial peptides human cathelicidin LL-37: […] was obtained from AnaSpec, USA (Catalogue numbers: 61302). Cathelicidin at 2 ug/ml was added to the plate and compared with control.
Cell proliferation was evaluated by measuring [3(H)]-thymidine incorporation into DNA. Cells were pulsed with [3(H)]-thymidine (1 microcurie/mL, ICN, Irvine, Calif.) for 1 hour, at 37 degrees centigrade. After incubation, cells were washed 3 times with PBS, incubated for 15 minutes at room temperature in 5% trichloroacetic acid and solubilized in 1% triton X-100. The radioactivity incorporated into the cells was counted in the [3(H)]-window of a Tricarb liquid scintillation counter. Mean values were determined from measurements of triplicate samples under each experimental condition for each experiment. Thymidine incorporation was determined as number of disintegrations per minute (DPM) per mg of protein.

[2] = Infection and immunity, November 1999; cited from earlier work
[3] = 10 ug/ml applied to lesion, 5 days treatment

Substance | change of skin psoriatic lesion [1, 3] | beta cell proliferation ([3(H)]-thymidine incorporation) vs PBS control (BETATC beta cell line) | half-life in blood of humans [2] | change of skin psoriatic lesion ([1]; applied to lesion, seven week course of treatment)
SKEKIGKEFKRIVQRIKDFLRNLVPRTES (listed as Homo sapiens) [SK29, cathelicidin fragment, 29 amino acids] | slight improvement | – | – | –
LLGDFFRKSKEKIGKEFKRIVQRIKDFLRNLVPRTES [LL-37] | slight improvement | significant BETATC beta cell line proliferation | approximately 3.4 days | –
human beta defensin-2 [reference compound] | – | – | – | worsening
